Among the data in PubChem BioAssay (NCI) are GI50 and TGI values, retold here.

Each structure is given as a SMILES string.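 Assay format: 96-well plates, 48-hour exposure. Here, GI50 denotes the concentration required for 50% inhibition of growth. TGI: concentration producing complete growth inhibition.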

Some test systems named below: NCI-H460 lung; UO-31 renal; SF-539 CNS; SN12C renal; A549 NSCLC; KM12 colon; M14 melanoma; CAKI-1 renal; K-562 leukemia; A498 renal.
What all share (assay): NCI tumour cell line growth inhibition, 48 h

On to `CC(=O)[CH-]C(C)=O.CC(=O)[CH-]C(C)=O.CC(=O)[CH-]C(C)=O.[Ga+3]`, for which the GI50 in the experiment with NCI-H460 lung, in the experiment with UO-31 renal, with SF-539 CNS, in the experiment with SN12C renal, with A549 NSCLC and in the experiment with KM12 colon was above 100 µM each time. In addition, the GI50 in the experiment with M14 melanoma and with CAKI-1 renal was above 100 µM throughout. Further, the TGI in the experiment on NCI-H460 lung, in the experiment on UO-31 renal, in the experiment with SF-539 CNS, in the experiment on SN12C renal, in the experiment with A549 NSCLC and with KM12 colon was above 100 µM in each case. For the same compound, the TGI with M14 melanoma and in the experiment on CAKI-1 renal was above 100 µM each time.
As to `COc1ccc(OC)c(Cc2cnc3nc(N)nc(N)c3c2C)c1`, the TGI in the experiment with NCI-H460 lung was 12.2 µM; in the experiment on K-562 leukemia it was 14.9 µM; with UO-31 renal it was 27.7 µM; in the experiment with SF-539 CNS, 20.3 µM; in the experiment on SN12C renal, 33.6 µM; with A549 NSCLC, 36.9 µM. The TGI is 20.7 µM in the experiment with KM12 colon, above 41.9 µM with M14 melanoma and above 81.9 µM in the experiment on CAKI-1 renal.
As for `O=[N+]([O-])/C=C/c1ccc(Cl)cc1Cl`, the TGI is 37.4 µM in the experiment with NCI-H460 lung; 9.94 µM in the experiment on K-562 leukemia; 29.8 µM in the experiment with UO-31 renal; 33 µM with SF-539 CNS; 48.5 µM with A549 NSCLC; 29.6 µM in the experiment on KM12 colon. For the same compound, the TGI in the experiment with M14 melanoma is 24.4 µM; in the experiment on CAKI-1 renal it was 29.8 µM.
Consider `C=CC[N+]1(CC)CCN=C1CCCCCCCCCCCCCCCCC` (centres undefined), for which the GI50 is 0.429 µM in the experiment on NCI-H460 lung; 1.14 µM with UO-31 renal; 0.752 µM in the experiment on SF-539 CNS; 0.623 µM with SN12C renal; 1.44 µM in the experiment on A498 renal; 0.35 µM with M14 melanoma. Moreover, in the experiment with CAKI-1 renal, the GI50 is 1.2 µM. Also, the TGI in the experiment with NCI-H460 lung turned out to be 1.46 µM; in the experiment on UO-31 renal, 2.43 µM; with SF-539 CNS it was 2.05 µM; in the experiment on SN12C renal it was 1.99 µM; in the experiment with A498 renal, 2.86 µM; in the experiment on M14 melanoma it was 1.28 µM. The same compound registered a TGI in the experiment with CAKI-1 renal of 2.63 µM.
For `CC(=O)OCC(CC[CH2][Sn]([Cl])([Cl])[c]1ccccc1)OC(C)=O` (centres undefined), the GI50 in the experiment with NCI-H460 lung was 19.6 µM; with K-562 leukemia it was 24.9 µM; with UO-31 renal it was 17.2 µM; in the experiment on SF-539 CNS it was 22 µM; in the experiment with SN12C renal it was 21 µM; with A549 NSCLC, 21.9 µM. Further, the GI50 was 17.8 µM in the experiment on KM12 colon, 16.2 µM in the experiment on M14 melanoma and 14.6 µM with CAKI-1 renal. Also, the TGI was 38.8 µM in the experiment with NCI-H460 lung; 71.8 µM in the experiment with K-562 leukemia; 33 µM with UO-31 renal; 42.5 µM with SF-539 CNS; 41 µM with SN12C renal; 53 µM with A549 NSCLC. Also, the results for the TGI with KM12 colon, in the experiment with M14 melanoma and with CAKI-1 renal were 33.2 µM, 29.7 µM and 30.9 µM, respectively.
As for `[Cl][Cu][Cl]`, the GI50 in the experiment with NCI-H460 lung, in the experiment with K-562 leukemia, in the experiment with UO-31 renal, with SF-539 CNS, in the experiment with SN12C renal and in the experiment with A549 NSCLC was above 10 µM throughout. For the same compound, the GI50 in the experiment with KM12 colon, with M14 melanoma and in the experiment with CAKI-1 renal was above 10 µM in each case. For the same compound, the TGI in the experiment with NCI-H460 lung, with K-562 leukemia, in the experiment with UO-31 renal, with SF-539 CNS, in the experiment on SN12C renal and in the experiment with A549 NSCLC was above 10 µM in each case. For the same compound, the TGI with KM12 colon, in the experiment on M14 melanoma and in the experiment on CAKI-1 renal was above 10 µM in each case.
As for `CN(C)CCCn1c2c(c3cc4c(cc3c1=O)OCO4)C(=O)c1ccccc1-2`, the GI50 in the experiment with NCI-H460 lung was 8.82 µM; in the experiment on K-562 leukemia it was 0.0793 µM; in the experiment on UO-31 renal, 4.19 µM; in the experiment on SF-539 CNS it was 3.57 µM; in the experiment with SN12C renal it was 0.203 µM; in the experiment with A549 NSCLC, 0.105 µM. Further, the GI50 with KM12 colon was 2.89 µM; in the experiment with M14 melanoma, 0.0984 µM; in the experiment with CAKI-1 renal it was 3.01 µM. Moreover, the TGI in the experiment on NCI-H460 lung was above 32.8 µM; in the experiment with UO-31 renal, 39.9 µM; with SF-539 CNS, 13.4 µM; with SN12C renal, 3.16 µM; with A549 NSCLC, 2.43 µM; in the experiment on KM12 colon, 14.5 µM. The TGI stood at 1.38 µM in the experiment with M14 melanoma and 9.4 µM in the experiment with CAKI-1 renal.
For `CC1CCC2C(CN(CC3=C(C(F)(F)F)OC4OC5(C)CCC6C(C)CCC3C46OO5)CC3=C(C(F)(F)F)OC4OC5(C)CCC6C(C)CCC3C46OO5)=C(C(F)(F)F)OC3OC4(C)CCC1C32OO4` (centres undefined), the GI50 in the experiment on NCI-H460 lung is 12.9 µM; in the experiment with K-562 leukemia it was 5.58 µM; in the experiment with UO-31 renal, 29.1 µM; in the experiment with SF-539 CNS, 11.9 µM; in the experiment on SN12C renal, 18.7 µM; in the experiment with A549 NSCLC it was 12.1 µM. Besides, the GI50 was 3.72 µM in the experiment with KM12 colon, 22.2 µM in the experiment on M14 melanoma and 5.87 µM in the experiment with CAKI-1 renal. Also, the TGI is 30 µM with NCI-H460 lung; 22.1 µM in the experiment with K-562 leukemia; above 100 µM in the experiment with UO-31 renal; 38.6 µM in the experiment with SF-539 CNS; 48.9 µM in the experiment with SN12C renal; 66.3 µM in the experiment on A549 NSCLC. The TGI in the experiment on KM12 colon was 10.1 µM; in the experiment on M14 melanoma, 59.7 µM; with CAKI-1 renal it was 18.4 µM.
Consider `COc1cc(/C=C/C(=O)O[C@H]2[C@H](O[C@@H]3O[C@@H](C)[C@H](O)[C@@H](O)[C@H]3O)[C@@H](O)[C@H](OCCc3ccc(O)c(O)c3)O[C@@H]2COC2OCC(O)(CO)C2O)ccc1O` (some centres undefined), for which the GI50 with NCI-H460 lung was above 100 µM; in the experiment on K-562 leukemia, 63.3 µM; in the experiment on UO-31 renal it was above 100 µM; with SN12C renal, above 100 µM; with A549 NSCLC it was above 100 µM; in the experiment on KM12 colon it was above 100 µM. Further, the GI50 in the experiment with M14 melanoma and with CAKI-1 renal was above 100 µM each time. Besides, the TGI with NCI-H460 lung, with K-562 leukemia, with UO-31 renal, with SN12C renal, in the experiment on A549 NSCLC and in the experiment on KM12 colon was above 100 µM throughout. Besides, the TGI with M14 melanoma and with CAKI-1 renal was above 100 µM in each case.
Take `COC1=C(OC)C(=O)C(CCCCCCCCCCO)=C(C)C1=O`: the GI50 was 14.8 µM with NCI-H460 lung; 12.7 µM in the experiment on UO-31 renal; 7.49 µM with SF-539 CNS; 7.39 µM in the experiment with SN12C renal; 15.3 µM in the experiment with A549 NSCLC; 15.1 µM in the experiment with KM12 colon. For the same compound, the figures for the GI50 in the experiment with A498 renal, with M14 melanoma and with CAKI-1 renal were 13.1 µM, 15 µM and 4.01 µM, respectively. Further, the TGI in the experiment with NCI-H460 lung was determined as 34.9 µM; with UO-31 renal, 26.6 µM; with SF-539 CNS, 20.3 µM; with SN12C renal, 24.4 µM; in the experiment on A549 NSCLC, 34.8 µM; with KM12 colon it was 58.1 µM. Besides, the results for the TGI in the experiment with A498 renal, with M14 melanoma and with CAKI-1 renal were 26.6 µM, 31 µM and 29 µM, respectively.
Take `N#CC1C(N)=NNC12Nc1ccccc1S2` (centres undefined): the GI50 was 36.6 µM in the experiment with NCI-H460 lung; 14.1 µM in the experiment with K-562 leukemia; 33.1 µM with UO-31 renal; 24.4 µM in the experiment with SN12C renal; 9.61 µM in the experiment on A549 NSCLC; 18.9 µM in the experiment with KM12 colon. Further, the results for the GI50 in the experiment on M14 melanoma and in the experiment on CAKI-1 renal were 15.3 µM and 23.4 µM, respectively. The TGI with NCI-H460 lung was above 100 µM; with K-562 leukemia it was 34.7 µM; in the experiment on UO-31 renal, above 100 µM; in the experiment with SN12C renal, 60.2 µM; in the experiment with A549 NSCLC, 31.5 µM; in the experiment on KM12 colon it was 91.6 µM. The values for the TGI in the experiment with M14 melanoma and with CAKI-1 renal were 40.5 µM and above 100 µM, respectively.
On to `COc1ccc2nc3cc(Cl)ccc3c(N3CCN(c4ccnc(N5CCN(C)CC5)n4)CC3)c2c1`, for which the GI50 with NCI-H460 lung is 2.29 µM; in the experiment with UO-31 renal it was 1.77 µM; with SF-539 CNS it was 1.77 µM; in the experiment on SN12C renal it was 2.84 µM; in the experiment on A549 NSCLC, 14.8 µM; in the experiment on KM12 colon, 2.09 µM. Also, the GI50 was 10.3 µM with A498 renal, 2.04 µM with M14 melanoma and 1.57 µM in the experiment on CAKI-1 renal. The TGI stood at 5.43 µM with NCI-H460 lung; 3.41 µM in the experiment on UO-31 renal; 3.3 µM with SF-539 CNS; 8.37 µM in the experiment with SN12C renal; 36 µM in the experiment on A549 NSCLC; 4.38 µM in the experiment with KM12 colon. Further, the TGI in the experiment on A498 renal came out at 40.7 µM; in the experiment with M14 melanoma it was 4.06 µM; in the experiment with CAKI-1 renal, 3.07 µM.
Take `C=CC(=O)N[C@@H](/C=C/C(=O)OCC)Cc1ccc(-c2cc(Cl)cc(Cl)c2)cc1`: the GI50 in the experiment on NCI-H460 lung was 11.2 µM; in the experiment with K-562 leukemia, 15.7 µM; in the experiment with UO-31 renal, 4.42 µM; in the experiment on SF-539 CNS, 16.6 µM; in the experiment with SN12C renal it was 8.04 µM; in the experiment on A549 NSCLC, 17.7 µM. The results for the GI50 with KM12 colon, in the experiment with M14 melanoma and in the experiment with CAKI-1 renal were 16.6 µM, 17 µM and 21.5 µM, respectively. For the same compound, the TGI in the experiment on NCI-H460 lung was 32.8 µM; in the experiment with K-562 leukemia, above 100 µM; with UO-31 renal it was 96.2 µM; with SF-539 CNS it was 39.1 µM; in the experiment on SN12C renal, 26.7 µM; in the experiment with A549 NSCLC, above 100 µM. The TGI in the experiment with KM12 colon was 93.7 µM; in the experiment on M14 melanoma it was 80.6 µM; in the experiment with CAKI-1 renal, above 100 µM.
